Data from PubChem BioAssay AID449750 (Broad Institute, 2010).
Activity calls are given as the source filed them. How the calls were made is not given here.

test: non-covalent RecA intein splicing inhibitors, dose response, biochemical, cell-free, fluorescence, secondary screen (AID 449750)

Structure (SMILES)	AC50
COc1ccccc1/C=C/C1(C(=O)NC2CCCC2)CC(=O)N1c1ccc(C)cc1 (stereo not drawn)	13.3 µM
CC1(C)N=C(SCC(=O)Nc2ccc(Cl)cc2)C(c2ccc(Cl)cc2)=N1	29.8 µM
COc1ccc(C(=O)Nc2ccc(O)c3ccccc23)cc1OC	> 38 µM (inactive)
O=C(NC(NC(=S)Nc1ccc(Cl)cc1Cl)C(Cl)(Cl)Cl)c1cccc([N+](=O)[O-])c1 (stereo not drawn)	2.62 µM
COc1ccc(N(C(=O)COc2cccc(C)c2)S(=O)(=O)c2ccc(C)cc2)cc1	> 38 µM (inactive)
CC1=NN(c2ccccc2)C(=O)/C1=C\c1cn(C)c2ccccc12	> 38 µM (inactive)
FC(F)(F)c1ccc2c(c1)N(CCCN1CCN(CCCl)CC1)c1ccccc1S2	2.54 µM
CCOC1=C/C(=C/c2c(N)n3oc(C)cc3nc2=O)C=CC1=O	> 38 µM (inactive)
COC(=O)c1[nH]c(=O)c2ccccc2c1O	12.1 µM
CC(CCc1ccccc1)NC(=O)COC(=O)c1cc(NS(=O)(=O)c2ccc(Cl)c([N+](=O)[O-])c2)ccc1O (stereo not drawn)	18.8 µM
Cn1nc([N+](=O)[O-])nc1Sc1nnc(-c2ccccc2)o1	> 38 µM (inactive)
COc1cc(C(c2c(C)[nH][nH]c2=O)c2c(C)[nH][nH]c2=O)ccc1OC(C)C	12 µM
CCc1cccc(NC(=O)CSCc2cc(=O)[nH][nH]2)c1	27.7 µM
CCCCCCCCCCCCCCCC[N+](C)(C)C	12.1 µM
Cc1ccc(C)c(-c2ccc(=O)n(Cc3cccc(Br)c3)n2)c1	16.7 µM
Cc1cc2c3c(c1)C(C)CC(C)(C)N3C(=O)C2=C(C#N)C#N (stereo not drawn)	> 38 µM (inactive)
O=C(Nc1ccccc1)C1=C(c2ccccc2)S(=O)(=O)CCS1(=O)=O	> 38 µM (inactive)
Cc1[nH]n(-c2ccccc2)c(=O)c1C(c1ccccc1[N+](=O)[O-])C(C#N)C#N (stereo not drawn)	9.48 µM
CCCc1c(C)c2c(C)[nH]nc2oc1=O	> 38 µM (inactive)
CC(C)[n+]1ccn(C2=C([O-])c3ccccc3C(=O)/C2=N\S(=O)(=O)c2ccccc2)c1	8.08 µM
CCOC(=O)C1=C(c2ccccc2)NC(N)=NC1c1ccc(OCc2ccc(C(=O)OC)cc2)cc1 (stereo not drawn)	9.55 µM
CC1CCCN(C(=O)COc2ccc(NC(=O)c3cccs3)cc2)C1 (stereo not drawn)	> 38 µM (inactive)
CC(=O)Nc1cccc(NC(=O)CSc2ncc(C(=O)Nc3ccccc3)c(=O)n2C)c1	> 38 µM (inactive)
COc1ccc(C(=O)N/N=C\c2coc3ccc(Cl)cc3c2=O)cc1	> 38 µM (inactive)
CCCCCCCCCCOC(=O)Cn1c(COc2ccccc2)[n+](C)c2ccccc21	7.97 µM
CN(C1=C(NC(=O)c2ccccc2)C(=O)c2ccccc2C1=O)C1CCS(=O)(=O)C1 (stereo not drawn)	3.3 µM

Structure (SMILES)	AC50
Cc1cc(=O)n(-c2ccc(C(=O)O)cc2)[nH]1	1.92 µM
O=C(NC1(O)C(=O)c2ccccc2C1=O)c1c(Cl)cccc1Cl	12.5 µM
CCc1ccc(NC(=O)C(=O)N/N=C(\C)CC(=O)Nc2ccccn2)cc1	> 38 µM (inactive)
Cc1ccc(N2C(=O)C(Cl)=C(N3CCOCC3)C2=O)c(C)c1	> 38 µM (inactive)
CN(C)c1ccc2nsnc2c1[N+](=O)[O-]	> 38 µM (inactive)
Cc1[nH][nH]c(=O)c1C(c1ccc([N+](=O)[O-])cc1)c1c(C)[nH][nH]c1=O	25.4 µM
CC(=O)c1ccc(-c2cccc(-c3nc4ccccn4c3NC3CCCCC3)c2)cc1	6.79 µM
CCCC(=O)OCCNc1cc(Sc2nc3ccccc3[nH]2)c2nonc2c1[N+](=O)[O-]	> 38 µM (inactive)
Cc1sc(NC(=O)/C=C/C(=O)O)c(C(N)=O)c1-c1ccc(C(C)(C)C)cc1	11.9 µM
Cc1ccc(C2C(C#N)=C(N)Oc3n[nH]c(-c4cccs4)c32)cc1 (stereo not drawn)	15.3 µM
Cc1ccc(SCc2[nH]nc3c2C(c2ccco2)C(C#N)=C(N)O3)cc1 (stereo not drawn)	14.8 µM
COc1ccc(/C=C/C(=O)c2ccc(O)cc2)cc1COc1ccc(F)cc1	> 38 µM (inactive)
O=C1/C(=C/Nc2ccc3c(c2)OCO3)CCc2ccccc21	4 µM
CC(C)N(CC(=O)Nc1ccc(Cl)cc1C(F)(F)F)C(=O)CCl	12.9 µM
COC(=O)c1cccc(N2C(=O)C(Cl)=C(N3CCOCC3)C2=O)c1	> 38 µM (inactive)
N=c1c2c(-c3ccccc3)c(-c3ccccc3)n(Cc3ccco3)c2ncn1Cc1ccco1	6.99 µM
COc1ccccc1-n1nnnc1S(=O)(=O)Cc1ccc(Cl)cc1	> 38 µM (inactive)
O=C(CS(=O)c1ccc(C(F)(F)F)cc1[N+](=O)[O-])Oc1ccccc1 (stereo not drawn)	> 38 µM (inactive)
Nc1nc(C(=O)N2CCOCC2)nn1C(=O)c1ccc(Cl)cc1	> 38 µM (inactive)
CC(C)(C)c1[nH]nc2c1C(c1ccco1)C(C#N)=C(N)O2 (stereo not drawn)	38.8 µM
CC1=NN(c2nc(-c3ccccc3)cs2)C(=O)C1	18.8 µM
CC(C)c1[nH]nc2c1C(c1ccco1)C(C#N)=C(N)O2 (stereo not drawn)	> 38 µM (inactive)
O=C(CNC(=O)c1ccccc1)N/N=C/c1ccc([N+](=O)[O-])o1	> 38 µM (inactive)
COc1cccc(-c2[nH]nc3c2C(c2ccoc2)C(C#N)=C(N)O3)c1 (stereo not drawn)	28.8 µM
Cc1[nH]n(-c2ccccc2)c(=O)c1C(C[N+](=O)[O-])c1ccc(Br)cc1 (stereo not drawn)	11.1 µM
CCc1ccc(NC(=O)CSc2ccc(-c3sc(C)nc3C)nn2)cc1	> 38 µM (inactive)

Structure (SMILES)	AC50
CSc1nnc(NC(=O)c2nc(S(=O)(=O)Cc3ccccc3F)ncc2Cl)s1	> 38 µM (inactive)
COc1ccccc1Oc1cc(C#N)c(C#N)cc1-n1nnc2ccccc21	16.5 µM
C/C(CC(=O)Nc1ccc(Cl)cn1)=N\NC(=O)Cc1cccs1	> 38 µM (inactive)
O=C(O)c1ccc(-n2c(=O)c3ccccc3c3ccccc3c2=O)cc1	> 38 µM (inactive)
CCO/C=C1/C(=O)N(C)C(=O)c2cc(OC)ccc21	> 38 µM (inactive)
CCCCCCCCCCOC(=O)Cn1c(COc2ccc(C)cc2)[n+](C)c2ccccc21	8.88 µM
CCC(=O)Nc1c(C)nn(C(=O)CC)c1C	> 38 µM (inactive)
COc1cccc(/C=C/C(=O)c2ccc(NS(=O)(=O)c3ccc(C)cc3)cc2)c1	6.79 µM
CCOC(=O)C1CCN(C(=O)c2c(C)oc3c2C(=O)c2ccccc2C3=O)CC1	21 µM
CCOc1ccc(N2C(=O)/C(=C\c3ccc(OC)c(O)c3)S(=O)(=O)C2c2cccc([N+](=O)[O-])c2)cc1 (stereo not drawn)	> 38 µM (inactive)
Cc1nnc(Sc2cc(NCCO)c([N+](=O)[O-])c3nonc23)s1	> 38 µM (inactive)
FC(F)(F)c1nnc(-c2ccccc2)nc1Sc1ccccc1	> 38 µM (inactive)
CC(=O)Nc1ccc(OC(=O)c2ccco2)cc1	> 38 µM (inactive)
CC1(S(=O)(=O)O)CC(=O)c2ccccc2C1=O (stereo not drawn)	6.36 µM
CCCCCc1cc(=O)oc2c(C(CCN3CCCC(C)C3)c3ccc(N(C)C)cc3)c(OC)cc(OC)c12 (stereo not drawn)	> 38 µM (inactive)
CCOC(=O)c1c(C)oc2c1c(C=NCCC(=O)O)c(O)c1ccccc12	22.1 µM
CCO/C=C1/C(=O)N(Cc2ccccc2)C(=O)c2ccccc21	> 38 µM (inactive)
CCc1ccc2c(c1)C(NC(C)=O)C(=O)N2CCN1CCOCC1 (stereo not drawn)	37 µM
COc1cc(C2(c3ccc(O)c(OC)c3)C(=O)Nc3c(Br)cc(Br)cc32)ccc1O	21.5 µM
COC(CNC(=O)c1ccc2c3c(onc13)-c1ccccc1C2=O)OC	> 38 µM (inactive)
C=COC(=O)CSc1snc(SCC(=O)OC)c1C#N	> 38 µM (inactive)
CC1=NN(c2ccc(C)c(C)c2)C(=O)C1C(c1cccc(O)c1)C1C(=O)N(c2ccc(C)c(C)c2)N=C1C (stereo not drawn)	3.38 µM
Cc1[nH]nc2c1C(c1ccc(OC(=O)c3ccco3)cc1)C(C#N)=C(N)O2 (stereo not drawn)	> 38 µM (inactive)
COC(=O)[C@@H]1[C@@H](C(=O)OC)C2(c3ccccc3-c3ccccc32)N(c2ccc(Cl)cc2)N1C#N	34.3 µM
COC(=O)c1ccccc1OC(=O)c1ccc(Br)o1	> 38 µM (inactive)
COC(CN(C(=O)CCl)C(C(=O)NC1CCCCC1)c1ccc(C)cc1)OC (stereo not drawn)	17.9 µM
